# Laboratory results as given in PubChem BioAssay AID1963825 (Molecular Pharmacology Branch, DTP, NCI, 2024).
# Experiment: Anticancer human tumor 997537-175-T-J1-PDC patient-derived colon adenocarcinoma cell line growth inhibition [POLQ]
# Conditions: 997537-175-T-J1-PDC complex spheroid viability, combination with POLQ inhibitors; for IC50: curve of first compound; for viability, T/C: stronger effect = lower value
# Procedure, shortened: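 PDC + HUVEC + MSC complex spheroids; POLQ inhibitors ± partner drugs; top conc. at/near clinical Cmax, else 10 microM (SN-38 1 microM), half-log dilutions; 37 degrees C, 5% CO2.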
# [1] = second compound 0.0316 µM, first compound 0.0316 µM
# [2] = second compound 0.0316 µM, first compound 0.1 µM
# [3] = second compound 0.0316 µM, first compound 0.316 µM
# [4] = second compound 0.0316 µM, first compound 1 µM
# [5] = second compound 0.0316 µM, first compound 3.16 µM
# [6] = second compound 0.0316 µM, first compound 10 µM
# [7] = second compound 0.1 µM, first compound 0.0316 µM
# [8] = second compound 0.1 µM, first compound 0.1 µM
# [9] = second compound 0.1 µM, first compound 0.316 µM
# [10] = second compound 0.1 µM, first compound 1 µM
# [11] = second compound 0.1 µM, first compound 3.16 µM
# [12] = second compound 0.1 µM, first compound 10 µM
# [13] = second compound 0.316 µM, first compound 0.0316 µM
# [14] = second compound 0.316 µM, first compound 0.1 µM
# [15] = second compound 0.316 µM, first compound 0.316 µM
# [16] = second compound 0.316 µM, first compound 1 µM
# [17] = second compound 0.316 µM, first compound 3.16 µM
# [18] = second compound 0.316 µM, first compound 10 µM
# [19] = second compound 1 µM, first compound 0.0316 µM
# [20] = second compound 1 µM, first compound 0.1 µM
# [21] = second compound 1 µM, first compound 0.316 µM
# [22] = second compound 1 µM, first compound 1 µM
# [23] = second compound 1 µM, first compound 3.16 µM
# [24] = second compound 1 µM, first compound 10 µM
# [25] = second compound 3.16 µM, first compound 0.0316 µM
# [26] = second compound 3.16 µM, first compound 0.1 µM
# [27] = second compound 3.16 µM, first compound 0.316 µM
# [28] = second compound 3.16 µM, first compound 1 µM
# [29] = second compound 3.16 µM, first compound 3.16 µM
# [30] = second compound 3.16 µM, first compound 10 µM
# [31] = second compound 10 µM, first compound 0.0316 µM
# [32] = second compound 10 µM, first compound 0.1 µM
# [33] = second compound 10 µM, first compound 0.316 µM
# [34] = second compound 10 µM, first compound 1 µM
# [35] = second compound 10 µM, first compound 3.16 µM
# [36] = second compound 10 µM, first compound 10 µM
# 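Also: luminescence signal used as a surrogate for viable cells; spheroids exposed to drugs for seven days before readout.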
structure (smiles),measurement,setting,value
CCc1cc2c(N3CCc4c(cc(Cn5ccnc5)cc4-c4cn(C)nc4C(F)(F)F)C3=O)ccnc2c(OC)n1 + COC1C(OC(N)=O)C(O)C(Oc2ccc3c(O)c(NC(=O)c4ccc(O)c(CC=C(C)C)c4)c(=O)oc3c2C)OC1(C)C,IC50,second compound 0.0316 µM,> 10 µM
same,IC50,second compound 0.1 µM,> 10 µM
same,IC50,second compound 0.316 µM,> 10 µM
same,IC50,second compound 1 µM,> 10 µM
same,IC50,second compound 3.16 µM,> 10 µM
same,IC50,second compound 10 µM,> 10 µM
same,"viability, T/C",[1],101%
same,"viability, T/C",[2],107%
same,"viability, T/C",[3],83%
same,"viability, T/C",[4],86%
same,"viability, T/C",[5],93.8%
same,"viability, T/C",[6],57%
same,"viability, T/C",[7],108%
same,"viability, T/C",[8],106%
same,"viability, T/C",[9],94.6%
same,"viability, T/C",[10],98.5%
same,"viability, T/C",[11],98.4%
same,"viability, T/C",[12],52.3%
same,"viability, T/C",[13],97%
same,"viability, T/C",[14],104%
same,"viability, T/C",[15],103%
same,"viability, T/C",[16],95.7%
same,"viability, T/C",[17],61.9%
same,"viability, T/C",[18],52.1%
same,"viability, T/C",[19],113%
same,"viability, T/C",[20],83.3%
same,"viability, T/C",[21],71.3%
same,"viability, T/C",[22],93.8%
same,"viability, T/C",[23],69%
same,"viability, T/C",[24],52.3%
same,"viability, T/C",[25],106%
same,"viability, T/C",[26],99%
same,"viability, T/C",[27],91.9%
same,"viability, T/C",[28],76.5%
same,"viability, T/C",[29],70%
same,"viability, T/C",[30],64.8%
same,"viability, T/C",[31],110%
same,"viability, T/C",[32],89.5%
same,"viability, T/C",[33],93.2%
same,"viability, T/C",[34],92.1%
same,"viability, T/C",[35],55.6%
same,"viability, T/C",[36],58.6%
COc1cccc2c1C(=O)c1c(O)c3c(c(O)c1C2=O)CC(O)(C(=O)CO)CC3OC1CC(N)C(O)C(C)O1 (stereo not given) + Nc1ccc(C#CCN(C(=O)Cc2ncc(C(F)(F)F)cc2C(F)(F)F)c2ccc(F)cc2)nn1,IC50,second compound 0.0316 µM,3.2 µM
same,IC50,second compound 0.1 µM,1.92 µM
same,IC50,second compound 0.316 µM,3.54 µM
same,IC50,second compound 1 µM,2.12 µM
same,IC50,second compound 3.16 µM,2.85 µM
same,IC50,second compound 10 µM,2.14 µM
same,"viability, T/C",[1],102%
same,"viability, T/C",[2],97.5%
same,"viability, T/C",[3],89.1%
same,"viability, T/C",[4],93.5%
same,"viability, T/C",[5],50.4%
same,"viability, T/C",[6],12.2%
same,"viability, T/C",[7],99.4%
same,"viability, T/C",[8],114%
same,"viability, T/C",[9],99.9%
same,"viability, T/C",[10],70.6%
same,"viability, T/C",[11],34.4%
same,"viability, T/C",[12],7.13%
same,"viability, T/C",[13],110%
same,"viability, T/C",[14],109%
same,"viability, T/C",[15],98.8%
same,"viability, T/C",[16],87.7%
same,"viability, T/C",[17],53.2%
same,"viability, T/C",[18],13.9%
same,"viability, T/C",[19],94.1%
same,"viability, T/C",[20],109%
same,"viability, T/C",[21],81.8%
same,"viability, T/C",[22],79.5%
same,"viability, T/C",[23],34.8%
same,"viability, T/C",[24],10.2%
same,"viability, T/C",[25],94.4%
same,"viability, T/C",[26],107%
same,"viability, T/C",[27],72.6%
same,"viability, T/C",[28],78.8%
same,"viability, T/C",[29],46.6%
same,"viability, T/C",[30],8.26%
same,"viability, T/C",[31],94.7%
same,"viability, T/C",[32],97.9%
same,"viability, T/C",[33],91.4%
same,"viability, T/C",[34],80%
same,"viability, T/C",[35],34.8%
same,"viability, T/C",[36],10.1%
Nc1ccn(C2OC(CO)C(O)C2(F)F)c(=O)n1 (stereo not given) + COC1C(OC(N)=O)C(O)C(Oc2ccc3c(O)c(NC(=O)c4ccc(O)c(CC=C(C)C)c4)c(=O)oc3c2C)OC1(C)C,IC50,second compound 0.0316 µM,> 10 µM
same,IC50,second compound 0.1 µM,> 10 µM
same,IC50,second compound 0.316 µM,> 10 µM
same,IC50,second compound 1 µM,> 10 µM
same,IC50,second compound 3.16 µM,> 10 µM
same,IC50,second compound 10 µM,> 10 µM
same,"viability, T/C",[1],95.8%
same,"viability, T/C",[2],108%
same,"viability, T/C",[3],79.4%
same,"viability, T/C",[4],85.2%
same,"viability, T/C",[5],65.8%
same,"viability, T/C",[6],88.2%
same,"viability, T/C",[7],108%
same,"viability, T/C",[8],106%
same,"viability, T/C",[9],72.2%
same,"viability, T/C",[10],95%
same,"viability, T/C",[11],80.6%
same,"viability, T/C",[12],74.9%
same,"viability, T/C",[13],103%
same,"viability, T/C",[14],106%
same,"viability, T/C",[15],88.7%
same,"viability, T/C",[16],78.4%
same,"viability, T/C",[17],73.9%
same,"viability, T/C",[18],66.8%
same,"viability, T/C",[19],106%
same,"viability, T/C",[20],89.9%
same,"viability, T/C",[21],100%
same,"viability, T/C",[22],76.5%
same,"viability, T/C",[23],63.6%
same,"viability, T/C",[24],70.6%
same,"viability, T/C",[25],97.9%
same,"viability, T/C",[26],97%
same,"viability, T/C",[27],92.5%
same,"viability, T/C",[28],94.6%
same,"viability, T/C",[29],71.7%
same,"viability, T/C",[30],62.7%
same,"viability, T/C",[31],84.6%
same,"viability, T/C",[32],90.8%
same,"viability, T/C",[33],86.5%
same,"viability, T/C",[34],63.7%
same,"viability, T/C",[35],71.6%
same,"viability, T/C",[36],72.3%
CCCS(=O)(=O)Nc1ccc(F)c(C(=O)c2c[nH]c3ncc(-c4ccc(Cl)cc4)cc23)c1F + Cc1cccc(N(C)C(=O)C2C(O)CCN2c2nc(C)cc(C(F)(F)F)c2C#N)c1,IC50,second compound 0.0316 µM,4.85 µM
same,IC50,second compound 0.1 µM,5.35 µM
same,IC50,second compound 0.316 µM,5.84 µM
same,IC50,second compound 1 µM,4.49 µM
same,IC50,second compound 3.16 µM,6.65 µM
same,IC50,second compound 10 µM,5.16 µM
same,"viability, T/C",[1],100%
same,"viability, T/C",[2],79.5%
same,"viability, T/C",[3],82.5%
same,"viability, T/C",[4],75.4%
same,"viability, T/C",[5],70.5%
same,"viability, T/C",[6],22.8%
same,"viability, T/C",[7],105%
same,"viability, T/C",[8],91.7%
same,"viability, T/C",[9],82.4%
same,"viability, T/C",[10],83%
same,"viability, T/C",[11],74.5%
same,"viability, T/C",[12],25.9%
same,"viability, T/C",[13],105%
same,"viability, T/C",[14],78%
same,"viability, T/C",[15],71.7%
same,"viability, T/C",[16],75.4%
same,"viability, T/C",[17],80.8%
same,"viability, T/C",[18],23.1%
same,"viability, T/C",[19],102%
same,"viability, T/C",[20],87.4%
same,"viability, T/C",[21],85.9%
same,"viability, T/C",[22],75.7%
same,"viability, T/C",[23],61.5%
same,"viability, T/C",[24],29.5%
same,"viability, T/C",[25],85.7%
same,"viability, T/C",[26],77%
same,"viability, T/C",[27],77.7%
same,"viability, T/C",[28],68%
same,"viability, T/C",[29],75.1%
same,"viability, T/C",[30],36.7%
same,"viability, T/C",[31],92.3%
same,"viability, T/C",[32],88.9%
same,"viability, T/C",[33],86.1%
same,"viability, T/C",[34],81.5%
same,"viability, T/C",[35],73.3%
same,"viability, T/C",[36],20.6%
CC(C)n1c(=O)n(C)c2cnc3cc(F)c(-c4ccc(OCCCN5CCCCC5)nc4)cc3c21 + Nc1ccc(C#CCN(C(=O)Cc2ncc(C(F)(F)F)cc2C(F)(F)F)c2ccc(F)cc2)nn1,IC50,second compound 0.0316 µM,> 10 µM
same,IC50,second compound 0.1 µM,> 10 µM
same,IC50,second compound 0.316 µM,> 10 µM
same,IC50,second compound 1 µM,> 10 µM
same,IC50,second compound 3.16 µM,> 10 µM
same,IC50,second compound 10 µM,> 10 µM
same,"viability, T/C",[1],96%
same,"viability, T/C",[2],107%
same,"viability, T/C",[3],92.5%
same,"viability, T/C",[4],98%
same,"viability, T/C",[5],85.5%
same,"viability, T/C",[6],91.3%
same,"viability, T/C",[7],98.2%
same,"viability, T/C",[8],111%
same,"viability, T/C",[9],113%
same,"viability, T/C",[10],105%
same,"viability, T/C",[11],97.2%
same,"viability, T/C",[12],77.4%
same,"viability, T/C",[13],97%
same,"viability, T/C",[14],91.1%
same,"viability, T/C",[15],107%
same,"viability, T/C",[16],89.9%
same,"viability, T/C",[17],107%
same,"viability, T/C",[18],90.2%
same,"viability, T/C",[19],105%
same,"viability, T/C",[20],107%
same,"viability, T/C",[21],92.6%
same,"viability, T/C",[22],89.4%
same,"viability, T/C",[23],105%
same,"viability, T/C",[24],107%
same,"viability, T/C",[25],97.3%
same,"viability, T/C",[26],104%
same,"viability, T/C",[27],104%
same,"viability, T/C",[28],83.3%
same,"viability, T/C",[29],97.8%
same,"viability, T/C",[30],98.7%
same,"viability, T/C",[31],102%
same,"viability, T/C",[32],103%
same,"viability, T/C",[33],97.8%
same,"viability, T/C",[34],101%
same,"viability, T/C",[35],96.2%
same,"viability, T/C",[36],81.5%
